The values that follow come from patent publication US20130053400A1, “OLIGOMER-ANTIHISTAMINE CONJUGATES” (priority 2007, published 2013).

The test system of data set [1] is histamine-induced wheal and flare response. The class given is in vivo. To be noted: for percent decrease in the wheal response (change in wheal size): 20 minute time-point, 0.1-0.3 mg/kg dose range. As to the method: Wheal and flare (erythema) experiments were performed in rats in order to measure in vivo activity of PEG-diphenhydramine. Intradermal injection of histamine produces a “wheal and flare” response in the skin as a result of histamine-induced mast cell degranulation, which is prevented by treatment with effective antihistamines.
Histamine was prepared from histamine diphosphate salt at 1 mg/mL (3.26 mM) in PBS, and was administered by intradermal injection 2.5 minutes after IV injection of the test article to the tail vein. At 5, 10, 20, 30 and 60 minutes post-injection, wheal sizes were measured using calipers and areas calculated (width×length, mm^2). Flare responses were measured by eye, and were graded on a scoring system of 1 (least significant)-5 (most severe).

Data set [2] deals with histamine-induced wheal and flare. Description: Wheal and flare further study, intravenous infusion. Format: in vivo, rats. To be noted: for antihistamine efficacy (wheal size): IV infusion, rats. As to the method:
Briefly, rats received a continuous infusion via the jugular vein catheter for 60 minutes. […] Sixty minutes after the start of the infusion period, the rats were given four (4) interdermal (ID) injections of histamine ([…] in saline; dose 50 μL at 10 μg/rat). […] Twenty minutes after the histamine injections a caliper (Fowler Sylvac Ultra-Cal Mark III) was used to measure the wheal and flare (the diameter of the blue area). Two measurements of the diameter of the blue area at the site of histamine injection were made at 90 degrees from one another. […] Blood samples collected via cardiac puncture were used for diphenhydramine quantitation. The blood samples were placed in vacutainer tubes containing K2 EDTA. The rats were exsanguinated and the brain was rinsed in ice cold saline, wrapped in foil and frozen. The brain and the plasma samples were analyzed for drug content.

Data set [3] concerns the target Histamine (H1) (Homo sapiens, UniProt P35367). Description: Histamine (H1) Binding Activity (Table I).
Data set [4] in a line: Solubility. Format: physicochemical. To be noted: Table I.
Data set [5] has as its target human recombinant H1 histamine receptors (Homo sapiens, UniProt P35367). Description: biochemical. Here is the method: (Caliper Life Sciences, Hopkinton, Mass.). […] This study was performed using duplicate samples per data point (n=2).
Data set [6] relates to guinea pig hearts.
The subject of data set [7] is human hepatocytes. Put plainly: Metabolic stability in human hepatocytes. To be noted: for metabolic breakdown / hepatic intrinsic clearance compared with diphenhydramine: human, hepatocytes.
The nature of data set [8]: Blood-brain barrier penetration, brain:plasma ratio after tail vein injection. Here is the method: The four compounds were tested following intravenous injection to the tail vein in rats.
After ensuring a single rat remained viable following a test dose, the rats (4 per condition) were dosed by tail vein injection and were sacrificed one hour later. Blood was collected by cardiac puncture, and brain tissue was collected. Plasma was prepared and brain tissue homogenized to enable quantitation of drug content by LC-MS/MS.
Concentrations of each compound were determined and brain:plasma ratios calculated accordingly.

Data set [9] is described as follows: in vitro. The note with it: human, hepatocytes.
Data set [10] can be described thus: Pharmacokinetics and oral bioavailability in rats. The note with it: for half-life: read-out: T ½ (converted). The class given is in vivo. Here is the method: For oral doses, 5 mg/kg if DPH-equivalent were used. […] Animals were dosed in triplicate by bolus injection to the femoral vein (IV) or oral gavage (PO), and whole blood was collected from the carotid artery from all animals at the appropriate time points for preparation of plasma samples. Quantitation of test article in plasma was performed by LC-MS/MS.

The test system of data set [11] is spontaneously beating rat hearts. Description: In vitro safety pharmacology, spontaneously beating rat hearts. An excerpt: The objective of this study was to determine the potential effects of escalating concentrations of conjugates on electrophysiological (PQ, QRS, RR, QT, QTc), and mechanical (dLVP/dtmax and dLVP/dtmin) properties in spontaneously beating rat hearts.

The test system of data set [12] is intact rat brain. The note with it: in vivo, 30 seconds, 20 μM.
The subject of data set [13] is hepatocytes. Description: Hepatocyte metabolism, dog.
For data set [14], the system named is rat hepatocyte. Description: Rat hepatocyte incubation.
For data set [15], the target named is cloned hERG channels stably expressed in HEK cells (Homo sapiens, UniProt Q12809). Put plainly: hERG current inhibition, electrophysiology. To be noted: read-out: IC50 hERG channel; hERG current, HEK cells. A general note: The hERG channel carries a current that helps repolarise heart muscle cells.
Where [16] appears, read: rat, plasma, IV, 1 mg/kg DPH-equivalent.
Setting [17] is: rat, plasma, oral, 5 mg/kg DPH-equivalent.
Setting [18] is: Ki ratio, repeated assay (asterisk), n=3.
The mark [19] stands for this setting: repeated assay (asterisk), n=3 samples per data point.
The mark [20] stands for this setting: one hour after tail vein injection, rats.

Where “and” joins values, the source holds several entries; their conditions need not be identical. Equal values may be shown once. Read-outs that look alike come from different tables or passages of the source.

human recombinant H1 histamine receptors, sequence (P35367 whole entry): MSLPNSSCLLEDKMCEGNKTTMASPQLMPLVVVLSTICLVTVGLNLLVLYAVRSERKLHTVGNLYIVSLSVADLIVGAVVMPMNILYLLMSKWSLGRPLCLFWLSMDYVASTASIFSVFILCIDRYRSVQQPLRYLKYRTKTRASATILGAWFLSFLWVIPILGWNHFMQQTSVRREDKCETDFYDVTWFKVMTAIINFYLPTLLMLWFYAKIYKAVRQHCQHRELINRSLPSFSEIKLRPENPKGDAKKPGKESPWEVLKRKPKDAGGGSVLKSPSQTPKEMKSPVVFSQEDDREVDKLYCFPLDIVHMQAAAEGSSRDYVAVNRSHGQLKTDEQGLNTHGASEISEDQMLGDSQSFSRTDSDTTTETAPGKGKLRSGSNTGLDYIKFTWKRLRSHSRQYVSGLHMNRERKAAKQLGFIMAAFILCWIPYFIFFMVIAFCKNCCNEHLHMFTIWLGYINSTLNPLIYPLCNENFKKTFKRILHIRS
Histamine (H1), sequence (P35367 whole entry): as above
cloned hERG channels stably expressed in HEK cells, sequence (Q12809 whole entry): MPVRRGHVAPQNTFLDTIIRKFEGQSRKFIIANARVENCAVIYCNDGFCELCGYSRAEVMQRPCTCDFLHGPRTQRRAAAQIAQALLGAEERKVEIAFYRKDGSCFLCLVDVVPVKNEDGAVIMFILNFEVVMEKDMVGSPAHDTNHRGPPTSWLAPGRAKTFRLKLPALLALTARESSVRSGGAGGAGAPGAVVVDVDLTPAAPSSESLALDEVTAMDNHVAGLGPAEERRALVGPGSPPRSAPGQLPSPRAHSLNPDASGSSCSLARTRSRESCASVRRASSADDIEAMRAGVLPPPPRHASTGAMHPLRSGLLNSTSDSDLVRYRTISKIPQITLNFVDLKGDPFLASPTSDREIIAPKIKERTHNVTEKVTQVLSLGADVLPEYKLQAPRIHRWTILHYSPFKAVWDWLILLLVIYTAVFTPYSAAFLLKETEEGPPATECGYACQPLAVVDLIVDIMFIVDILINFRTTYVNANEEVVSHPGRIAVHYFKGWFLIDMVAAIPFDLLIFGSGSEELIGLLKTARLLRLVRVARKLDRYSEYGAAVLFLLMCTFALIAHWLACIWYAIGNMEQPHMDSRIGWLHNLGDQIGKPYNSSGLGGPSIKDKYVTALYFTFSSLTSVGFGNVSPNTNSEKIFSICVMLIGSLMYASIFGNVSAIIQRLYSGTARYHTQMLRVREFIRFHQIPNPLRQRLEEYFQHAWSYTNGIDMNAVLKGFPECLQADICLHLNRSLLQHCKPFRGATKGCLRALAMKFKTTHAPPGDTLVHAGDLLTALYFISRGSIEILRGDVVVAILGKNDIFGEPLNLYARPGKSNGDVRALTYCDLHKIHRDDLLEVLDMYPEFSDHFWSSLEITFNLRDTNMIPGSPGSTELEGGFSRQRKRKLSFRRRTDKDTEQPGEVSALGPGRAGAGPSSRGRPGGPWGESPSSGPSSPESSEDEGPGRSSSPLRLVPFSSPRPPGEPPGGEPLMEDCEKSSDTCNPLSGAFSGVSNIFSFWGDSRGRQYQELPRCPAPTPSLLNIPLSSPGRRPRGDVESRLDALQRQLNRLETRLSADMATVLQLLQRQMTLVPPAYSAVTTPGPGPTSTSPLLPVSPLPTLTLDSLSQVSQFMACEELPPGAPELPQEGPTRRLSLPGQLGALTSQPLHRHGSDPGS

Consider `CN(C)CCOC(c1ccccc1)c1ccccc1` [Diphenhydramine, reference compound], for which the “flare response (visual scoring)” value in [1] (0.01 mg/kg) is listed as “protective effect of diphenhydramine begins to decrease”; in data set [1] (0.03 mg/kg) it was “still suppresses the response effectively”; in data set [1] (highest concentrations) it was “no detectable flare”. Also, the “percent decrease in the wheal response (change in wheal size)” value in [1] is “approximately 40%”. Besides, in data set [1] (all doses tested), the wheal size result is given as “clear dose-dependent reduction”. The “antihistamine efficacy (wheal size)” value in [2] was “dose dependent reduction in wheal size”.
`COCCOCCOCCOCCOCCN1CCN(C(c2ccccc2)c2ccc(Cl)cc2)CC1` (centres unmarked) [PEG3-Hydroxyzine, mPEG3-Hydroxyzine]: in [3] (read-out: IC50), the IC50 is 105 nM. Further, in data set [4], the Solubility result is recorded as “soluble”.
Take `COCCOCCOCCOCCOCCOCCN(CCOC(c1ccccc1)c1ccccc1)CCOC(c1ccccc1)c1ccccc1` [mPEG6-N-(Diphenhydramine)2, mPEGn-N-(diphenhydramine)2]: the 50% inhibitory concentration (IC50) in data set [3] (read-out: IC50) was 6500 nM.
With `COCCOCCOCCOCCOCCNC(=O)COCCN1CCN(C(c2ccccc2)c2ccc(Cl)cc2)CC1` (centres unmarked) [PEG5-Cetirizine, mPEG5-Cetirizine], the Solubility entry in data set [4] is “soluble”.
Compound `COCCOCCOCCOCCOCCN(C)CCOC(c1ccccc1)c1ccccc1` [mPEG5-N-diphenhydramine] came in with an IC50 in data set [3] of 600 nM. Also, in data set [5], the Fold vs parent is 11.1 and 14.6; the Ki is 333 nM and 230 nM. Further, the “antihistamine efficacy (wheal size)” value in data set [2] is reported as “demonstrated efficacy, but toxicity occurs at same concentrations”. In addition, the “fold weaker than diphenhydramine” value in [2] (efficacy at diphenhydramine-equivalent target plasma concentrations) is ≥ 10 fold. Moreover, the Coronary perfusion entry in data set [6] is given as “increased dramatically”. The “QRS and PQ durations” value in data set [6] (guinea pig) is listed as “increase only for 10^−5 M concentration”. In addition, the “metabolic breakdown / hepatic intrinsic clearance compared with diphenhydramine” value in [7] is given as “moderately faster metabolic breakdown than diphenhydramine”. In data set [8] (brain concentration, adjusted for DPH molar dose twice that of conjugates), the “Fold change (vs DPH)” value is 28. Besides, the Kp at 1 h in data set [8] (rat, brain and plasma, intravenous) was in the range of 0.2 to 1. The concentration at 1 h in [8] (rat, brain, intravenous) was 97.9 ± 32.9 ng/g. Also, the concentration at 1 h in data set [8] (rat, plasma, intravenous) came to 415 ± 78.7 ng/mL. This compound also came in with a half-life in data set [9] of 44.2 min. In addition, in data set [10] (setting [16]), the AUC(0-inf) was found to be 391 ng·h/mL, the clearance is 69.5 mL/min/kg and the half-life was 19.8 min. Besides, the Cmax in [10] (rat, plasma, IV, 1 mg/kg DPH-equivalent, read-out: Cmax) was determined as 821 ng/mL. In addition, the Vd in data set [10] (rat, plasma, IV, 1 mg/kg DPH-equivalent, read-out: Vss) was 1.98 L/kg. In data set [10] (rat, plasma, oral 5 mg/kg vs IV 1 mg/kg, read-out: F (oral bioavailability)), the bioavailability came to 1.5%. In [10] (setting [17]), the AUC(0-inf) was 29.4 ng·h/mL and the half-life is 22.8 min. Further, in data set [10] (rat, plasma, oral, 5 mg/kg DPH-equivalent, read-out: Cmax), the Cmax turned out to be 53.6 ng/mL. The Tmax in data set [10] (rat, plasma, oral, 5 mg/kg DPH-equivalent, read-out: Tmax) was determined as 15 min. For the same compound, in [11], the “dromotropism (PQ and QRS)” value is “greater negative dromotropism (lengthening of PQ and QRS) than diphenhydramine”; the “effect on coronary smooth muscle” value is recorded as “vasodilatory effect”; the “ventricular repolarization (QT and QTc)” value was “retard ventricular repolarization (QT and QTc) slightly more than diphenhydramine or quinidine”. Also, in data set [11] (10^−5 M), the cardiodeceleration entry is “greater cardiodeceleration”; the inotropism and lusitropism result is “striking positive inotropism and lusitropism”.
In the case of `COCCOCCOCCN(C)CCOC(c1ccccc1)c1ccccc1` [mPEG(3)-N-Diphenhydramine, mPEG3-N-diphenhydramine], the Fold vs parent in [5] (setting [18]) was 7.8. In addition, the Ki in data set [5] (setting [19]) turned out to be 124 nM.
For the compound `COCCOCCOCCOCCOCCOCCOCCN1CCN(C(c2ccccc2)c2ccc(Cl)cc2)CC1` (centres unmarked) [PEG5-Hydroxyzine, mPEG5-Hydroxyzine], the IC50 in [3] (read-out: IC50) was determined as 76.7 nM. Also, the Solubility result in [4] is on record as “soluble”.
With `OCCOCCN1CCN(C(c2ccccc2)c2ccc(Cl)cc2)CC1` (centres unmarked) [Hydroxyzine, reference compound], the “Normalized Brain Uptake Rate (Mean ± SD)” value in data set [12] is on record as 355.89 ± 59.02 pmole/gm brain/sec.
As to `COCCOCCOCCOCCOCCOCCN(C)CCOC(c1ccccc1)c1ccccc1` [mPEG(6)-N-Diphenhydramine, mPEG6-N-diphenhydramine], in data set [1] (0.03 mg/kg), the “flare response (visual scoring)” value was “flare responses begin to return” and the wheal size entry is on record as “did not produce a detectable change in wheal size”. In data set [1] (1 mg/kg IV, rat), the “toxicity in first animal dosed” value is “suffered convulsions and died”. In addition, in [1] (0.1, 0.3 mg/kg), the wheal size entry was “reduced the size of the wheal compared with control injection”. The “percent decrease in the wheal response (change in wheal size)” value in data set [1] was “approximately 25%”. Also, in data set [1] (highest concentrations), the “flare response (visual scoring)” value is recorded as “no detectable flare”. Further, the “Half-Life (t1/2) (hepatocytes)” value in data set [7] (human hepatocytes, initial rate of loss of parent, n=1) amounted to 122.9 min. In addition, the “metabolic breakdown / hepatic intrinsic clearance compared with diphenhydramine” value in data set [7] is given as “faster than that of the parent diphenhydramine”. For the same compound, in data set [8] (setting [20]), the Brain concentration came to 45.1 ± 4.4 ng/g and the Plasma concentration is 237.0 ± 41.1 ng/mL. The “hepatic intrinsic clearance compared with diphenhydramine” value in [13] was “faster than that of the parent diphenhydramine”. In addition, the “metabolic breakdown compared with diphenhydramine” value in [14] is reported as “slower metabolic breakdown than diphenhydramine”. The IC50 in data set [15] came to 3.79 µM. Moreover, in data set [10] (IV, 1 mg/kg DPH-equivalent), the AUCinf turned out to be 405 ng·h/mL, the CL was 73.32 mL/min/kg, the maximum concentration (Cmax) turned out to be 790 ng/mL and the “T ½” value was 22.8 min. For the same compound, in data set [10] (IV, 1 mg/kg DPH-equivalent), the Vss is on record as 1910 mL/kg. Besides, the “F (oral bioavailability)” value in [10] (oral 5 mg/kg vs IV 1 mg/kg) is reported as 2.4%. Further, in [10] (oral, 5 mg/kg DPH-equivalent), the AUCinf worked out at 49.1 ng·h/mL, the Cmax was 81.9 ng/mL, the “T ½” value came to 23.4 min and the Tmax was 15 min.
For `COCCOCCOCCOCCN(C)CCOC(c1ccccc1)c1ccccc1` [mPEG(4)-N-Diphenhydramine, mPEG4-N-diphenhydramine], in data set [5] (setting [18]), the Fold vs parent is 12.7. The Ki in [5] (setting [19]) is 200 nM.
As for `COCCOCCOCCOCCOCCOCCNCCOC(c1ccccc1)c1ccccc1` [mPEG(6)-NH-Diphenhydramine, mPEG6-NH-diphenhydramine], the IC50 in data set [3] (read-out: IC50) was determined as 4120 nM. Also, in data set [5] (Ki ratio, first run, n=2), the Fold vs parent came to 62.5. Further, the Ki in [5] (first run, n=2 samples per data point) was found to be 1890 nM.
For `COCCOCCOCCN1CCN(C(c2ccccc2)c2ccc(Cl)cc2)CC1` (centres unmarked) [PEG1 -Hydroxyzine, mPEG1-Hydroxyzine], the IC50 in data set [3] (read-out: IC50) is 70.3 nM. In data set [4], the Solubility result is “soluble”.
In the case of `Cc1cc(=O)n(-c2ccccc2)n1C` [Antipyrine], the “Normalized Brain Uptake Rate (Mean ± SD)” value in [12] is reported as 17.4 ± 5.7 pmole/gm brain/sec.

One may read the IC50 as the concentration needed to halve the response being measured. By Ki is commonly meant a dissociation constant, usually derived from enzyme kinetics or from competition with a known ligand. Broadly, the Kp is tissue or fluid exposure divided by exposure in the circulation. What is called AUC(0-inf) is the area under the concentration-time curve extrapolated to infinity. By Cmax is commonly meant the maximum level reached in the sampled fluid or tissue. One may read the bioavailability as the share of a dose that reaches the circulation, judged against a reference dose that is usually intravenous. Usually Tmax stands for the time at which the peak concentration occurs.
